Some test systems named below: BT-549 breast; CCRF-CEM leukemia; CAKI-1 renal; A498 renal; A549 NSCLC; PC-3 prostate; HOP-92 NSCLC; LOX IMVI melanoma; SNB-19 CNS; K-562 leukemia.
What all share (assay): growth of human tumour cells (NCI), 48 h

Structures are written as SMILES.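 Cells were grown in 96-well plates and exposed to each compound for 48 hours at five concentrations; endpoints were interpolated linearly between bracketing concentrations, or set to the highest concentration if not reached. Here, GI50 denotes the concentration required for 50% inhibition of growth. TGI: total growth inhibition.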

`CCC[CH2][Sn]1([CH2]CCC)[O]C(=O)c2cccc([N+](=O)[O-])c2C(=O)[O]1`: the GI50 was 0.849 µM in the assay on BT-549 breast; 0.0617 µM in the assay with CCRF-CEM leukemia; 0.332 µM in the assay on CAKI-1 renal; 0.191 µM with A498 renal; 1.77 µM in the assay with A549 NSCLC; 1.06 µM in the assay on PC-3 prostate. Moreover, the GI50 was 0.228 µM with HOP-92 NSCLC, 0.259 µM with LOX IMVI melanoma and 1.2 µM with SNB-19 CNS. Besides, the TGI with BT-549 breast is 2.09 µM; in the assay with CCRF-CEM leukemia it was 0.683 µM; with CAKI-1 renal, 1.39 µM; in the assay with A498 renal, 0.547 µM; in the assay on A549 NSCLC, 3.59 µM; with PC-3 prostate it was 2.45 µM. Moreover, the TGI worked out at 1.66 µM in the assay on HOP-92 NSCLC, 0.7 µM in the assay on LOX IMVI melanoma and 2.51 µM in the assay on SNB-19 CNS.

For `CC(=O)C1=C(C)N(Cc2ccccc2)C2(O)C=CC(=O)C3=C(O)c4ccccc4C(=O)C312` (stereo not drawn), the GI50 is 5.88 µM in the assay with BT-549 breast; 2.47 µM with CAKI-1 renal; 22.7 µM in the assay with A498 renal; 20.1 µM with A549 NSCLC; 10.3 µM with PC-3 prostate; 3.73 µM in the assay on HOP-92 NSCLC. Besides, the figures for the GI50 in the assay with LOX IMVI melanoma, with K-562 leukemia and in the assay with SNB-19 CNS were 1.97 µM, 8.68 µM and 16 µM, respectively. The TGI in the assay with BT-549 breast is 19.6 µM; with CAKI-1 renal, 6.37 µM; in the assay with A498 renal, 38.1 µM; in the assay on A549 NSCLC, above 100 µM; in the assay on PC-3 prostate, 31.2 µM; in the assay with HOP-92 NSCLC, 7.77 µM. Further, the TGI in the assay with LOX IMVI melanoma is 4.39 µM; with K-562 leukemia, above 100 µM; with SNB-19 CNS, 44.1 µM.

Turning to `CN(C(=O)C(C)(C)C)c1ccccc1I(=O)=O`, the GI50 is above 100 µM in the assay on BT-549 breast; 8.62 µM with CCRF-CEM leukemia; above 100 µM in the assay with CAKI-1 renal; above 100 µM in the assay with A498 renal; above 100 µM in the assay on A549 NSCLC; 15.9 µM with HOP-92 NSCLC. Further, the results for the GI50 with LOX IMVI melanoma, in the assay on K-562 leukemia and with SNB-19 CNS were above 100 µM, 14.1 µM and above 100 µM, respectively. Also, the TGI in the assay on BT-549 breast was above 100 µM; with CCRF-CEM leukemia, 31.6 µM; with CAKI-1 renal, above 100 µM; in the assay on A498 renal it was above 100 µM; with A549 NSCLC it was above 100 µM; in the assay on HOP-92 NSCLC, 96.7 µM. The TGI is above 100 µM in the assay on LOX IMVI melanoma, 35.5 µM in the assay on K-562 leukemia and above 100 µM in the assay with SNB-19 CNS.

As for `NS(=O)(=O)c1ccc(-n2nc3c(c2-c2cccs2)Cc2ccccc2-3)cc1`, the GI50 with BT-549 breast was 12.4 µM; with CCRF-CEM leukemia, 4.24 µM; in the assay on CAKI-1 renal, 10.1 µM; with A549 NSCLC, 20.7 µM; with PC-3 prostate, 6.76 µM; with HOP-92 NSCLC, 5.56 µM. In addition, the GI50 was 6.58 µM in the assay on LOX IMVI melanoma, 0.858 µM in the assay with K-562 leukemia and 18.1 µM in the assay with SNB-19 CNS. In addition, the TGI was found to be 26.3 µM in the assay on BT-549 breast; 28.7 µM in the assay on CCRF-CEM leukemia; 22.7 µM in the assay with CAKI-1 renal; 51.1 µM in the assay with A549 NSCLC; 20.6 µM in the assay on PC-3 prostate; 22.7 µM in the assay on HOP-92 NSCLC. Besides, the TGI was 19.9 µM with LOX IMVI melanoma, 3.55 µM in the assay with K-562 leukemia and 44.8 µM in the assay with SNB-19 CNS.

Turning to `O=C(Nc1ccc(Br)cc1)C(=O)C(C(=O)c1ccc(Cl)c(Cl)c1)C1OC(=O)c2ccccc21` (stereo not drawn), the TGI in the assay on CCRF-CEM leukemia is above 100 µM; in the assay on CAKI-1 renal, 51.3 µM; in the assay with A498 renal it was 33.9 µM; in the assay on A549 NSCLC, 46 µM; with HOP-92 NSCLC, 58.4 µM; in the assay with LOX IMVI melanoma it was 47 µM. The TGI with K-562 leukemia is above 100 µM; in the assay on SNB-19 CNS, 97.8 µM.

In the case of `C=CCC1(CN(C)C)CC/C(=C\c2ccc3c(c2)OCO3)C1=O` (stereo not drawn), the TGI in the assay on CCRF-CEM leukemia is 81.4 µM; with CAKI-1 renal, above 100 µM; in the assay with A498 renal it was above 100 µM; with A549 NSCLC it was above 100 µM; in the assay on HOP-92 NSCLC, above 100 µM; in the assay with LOX IMVI melanoma it was above 100 µM. Also, the TGI with K-562 leukemia and with SNB-19 CNS was above 100 µM in each case.

For the compound `O=C(Nc1nc2c(C(F)(F)F)cccc2s1)c1cc(Cl)ccc1O`, the GI50 in the assay on BT-549 breast was 0.305 µM; in the assay with CCRF-CEM leukemia, 0.328 µM; in the assay with A498 renal, 0.181 µM; with A549 NSCLC, 0.316 µM; with PC-3 prostate, 0.302 µM; in the assay on HOP-92 NSCLC, 0.188 µM. For the same compound, the GI50 was 0.32 µM in the assay with LOX IMVI melanoma, 0.327 µM in the assay on K-562 leukemia and 0.345 µM in the assay on SNB-19 CNS. Besides, the TGI in the assay with BT-549 breast was 1.79 µM; in the assay with CCRF-CEM leukemia it was 12.5 µM; with A498 renal it was 0.519 µM; with A549 NSCLC it was above 100 µM; in the assay on PC-3 prostate it was 30.3 µM; in the assay with HOP-92 NSCLC it was 0.705 µM. In addition, the values for the TGI with LOX IMVI melanoma, in the assay with K-562 leukemia and with SNB-19 CNS were 10.8 µM, above 100 µM and 65.6 µM, respectively.

Consider `O=C(Nc1ccc(Cl)c(Cl)c1)c1ccc(NC2=C(Cl)C(=O)N(Cc3ccccc3)C2=O)cc1`, for which the GI50 in the assay on BT-549 breast is 3.29 µM; in the assay on CCRF-CEM leukemia, 2.3 µM; with CAKI-1 renal, 3 µM; in the assay on A498 renal it was 17.6 µM; with A549 NSCLC, 11.9 µM; in the assay on PC-3 prostate, 3.55 µM. Besides, the GI50 in the assay on K-562 leukemia is 2.34 µM; in the assay with SNB-19 CNS, 52.9 µM. The TGI in the assay on BT-549 breast is 10.6 µM; in the assay on CCRF-CEM leukemia, 7.79 µM; in the assay on CAKI-1 renal, 12.6 µM; in the assay on A498 renal, 36.8 µM; with A549 NSCLC, 27.3 µM; in the assay on PC-3 prostate it was 13.4 µM. Further, the TGI is 5.93 µM in the assay with K-562 leukemia and above 100 µM with SNB-19 CNS.

For the compound `CCN1CCN(c2ccc(NC(=O)Nc3nc4ccc(-c5ccccc5OC)cc4s3)cc2)CC1`, the GI50 in the assay with BT-549 breast is 1.88 µM; in the assay with CCRF-CEM leukemia, 1.81 µM; in the assay on A498 renal, 1.8 µM; with A549 NSCLC it was 1.98 µM; in the assay on PC-3 prostate it was 1.79 µM; with HOP-92 NSCLC, 1.47 µM. Moreover, the GI50 with LOX IMVI melanoma is 1.7 µM; in the assay with SNB-19 CNS, 2.03 µM. The TGI in the assay on BT-549 breast is 3.73 µM; in the assay with CCRF-CEM leukemia it was 4.09 µM; in the assay with A498 renal it was 3.61 µM; with A549 NSCLC it was 3.59 µM; with PC-3 prostate, 3.47 µM; in the assay on HOP-92 NSCLC, 3.75 µM. The TGI with LOX IMVI melanoma worked out at 3.17 µM; with SNB-19 CNS, 3.65 µM.
